In one series the test system is M-HeLa. Briefly: MTT cytotoxicity test, M-HeLa cells. It counts as cell-based, human. The note with it: Homo sapiens, M-HeLa, 24 h incubation, tested at 1–100 µM, three independent experiments, read-out: IC50 (µM) Cancer Cell Lines M-HeLa. A general note: Tetrazolium assays rely on reduction of a dye to a coloured formazan, in cell work by metabolically active cells.

For a further series, the system named is HuTu 80. Kind of series: MTT cytotoxicity test, HuTu 80 cells. The series is classed as cell-based, human. The note with it: for IC50: Homo sapiens, HuTu80, MTT test, 24 h incubation, tested at 1–100 µM, three independent experiments, read-out: IC50 (µM) Cancer Cell Lines HuTu 80; for selectivity index, SI = IC50(Chang liver)/IC50(HuTu 80): normal Chang liver vs HuTu 80.

The test system of the next series is Chang liver. Kind of series: MTT cytotoxicity test, normal Chang liver cells. To be noted: Homo sapiens, Chang liver, 24 h incubation, tested at 1–100 µM, three independent experiments, read-out: IC50 (µM) Normal Cell Lines Chang Liver. The series is classed as cell-based, human.
Series [1] has as its system HuTu 80 cells. Briefly: Cell apoptosis analysis by flow cytometry (annexin V-Alexa Fluor 647 / propidium iodide). The note with it: HuTu 80, IC50/2 and IC50 concentrations, 24-h incubation. It counts as cell-based, human. From the text: Induction of apoptosis is one of the most important mechanisms of anticancer activity. The apoptosis-inducing effect in HuTu 80 cells was studied by flow cytometry using sets of annexin V binding to the apoptosis marker phosphatidylserine. On the surface of the membranes of healthy cells, phosphatidylserine is contained in a minimal amount. Therefore, the interaction of annexin V with these cells is negligible. During apoptosis, phosphatidylserine molecules appear on the cell surface and can interact with the protein. This interaction leads to an increase in the fluorescence intensity of apoptotic cells, which is recorded by a flow cytometer. The apoptosis-inducing effect was evaluated using the example of the leader compound 7r at IC50/2 and IC50 concentrations on the HuTu 80 cell line (Figure 1).
(§1) Cell Culture. HuTu 80 cells at 1 × 10^6 cells/well in a final volume of 2 mL were seeded into six-well plates.
Cell Apoptosis Analysis. […] The cells were harvested at 2000 rpm for 5 min and then washed twice with ice-cold PBS, followed by resuspension in binding buffer. Next, the samples were incubated with 5 μL of annexin V- Alexa Fluor 647 (Sigma-Aldrich, St. Louis, MO, USA) and 5 μL of propidium iodide (Sigma-Aldrich, St. Louis, MO, USA) for 15 min at room temperature in the dark. Finally, the cells were analyzed using flow cytometry (Guava easy Cyte, MERCK, Darmstadt, Germany) within 1 h. […]

Series [2] relates to HuTu 80 cells. Kind of series: Mitochondrial membrane potential by flow cytometry (JC-10). The series is classed as cell-based, human. The note with it: HuTu 80, IC50/2 and IC50 concentrations, 24-h incubation. From the text: Violation of the functions of the mitochondria of the cell is one of the most common signs of apoptosis inherent in eukaryotic organisms. With mitochondrial dysfunction, pro-apoptotic factors are released into the cytoplasm—cytochrome c, AIF, Smac/DIABLO, endonuclease G, as well as proforms of caspases 2, 3, and 9—inducing the cascade. The release of these protein factors can be associated both with the rupture of mitochondrial membranes and with the activation of specific channels in the outer mitochondrial membrane. This usually leads to a change in the mitochondrial membrane potential (ΔΨm) due to a change in the permeability of the inner mitochondrial membrane for H+ protons. […] The principle of operation of these dyes is determined by their ability to spontaneously penetrate through the cytoplasmic membranes of cells, as well as the outer and inner membranes of mitochondria and accumulate in areas with a high concentration of protons, that is, under the inner mitochondrial membrane. This effect is accompanied by a change in the intensity of cell fluorescence, which is recorded by cytofluorimetry. […] JC-10 accumulates in the mitochondrial matrix and forms aggregates (J-aggregates) with red fluorescence in normal cells with a high mitochondrial membrane potential. […]
In general terms: A flow cytometer gives signals particle by particle.

The test system of series [3] is HuTu 80 cells. Briefly: Detection of intracellular ROS by flow cytometry (CellROX Deep Red). The series is classed as cell-based, human. The note with it: for Fluorescence intensity (CellROX Deep Red, ROS production): 24 h.
Excerpt: Increased generation of reactive oxygen species (ROS) by the test compounds can also characterize the development of apoptosis along the mitochondrial pathway. Mitochondria are both a potential source and target of ROS. An increase in ROS production leads to the disruption of mitochondrial functions and, subsequently, to irreversible damage and cell death. In this regard, the effect of lead compound 7r at IC50/2 and IC50 concentrations on ROS production in HuTu 80 cells was investigated using a flow cytometry assay and the CellROX® Deep Red flow cytometry kit. […] This indicates an increase in ROS production in the presence of the test compound.
as §1
ROS generation was investigated using a flow cytometry assay and CellROX® Deep Red flow cytometry kit. For this, […] cells were harvested at 2000 rpm for 5 min and then washed twice with ice-cold PBS, followed by resuspension in 0.1 mL of medium without FBS, to which we added 0.2 μL of CellROX® Deep Red (Thermo Fisher Scientific, Waltham, MA, USA) and incubated at 37 °C for 30 min After three times washing the cells and suspending them in PBS, the production of ROS in the cells was immediately monitored using flow cytometer Guava easy Cyte, MERCK).

Usually IC50 stands for the concentration at which inhibition is half-maximal. By melting point is commonly meant the temperature, or range, at which the solid turns liquid.

For the compound `Cc1ncc(CCl)c2cc(C(=O)Nc3ccc(NC(=O)c4cc5c(CCl)cnc(C)c5oc4=O)cc3)c(=O)oc12` [7q, N,N′-(1,4-Phenylene)bis(5-(chloromethyl)-8-methyl-2-oxo-2H-pyrano[2,3-c]pyridine-3-carboxamide)], the melting point is more than 300 °C. Also, in the series with M-HeLa, the 50% inhibitory concentration (IC50) was found to be 84.3 ± 5.9 µM. Moreover, in the series on HuTu 80, the IC50 was 95.4 ± 6.5 µM. Moreover, the IC50 in the series on Chang liver was more than 100 µM.
For `Cc1ncc(CCl)c2cc(C(=O)Nc3ccc(S(=O)(=O)c4ccc(NC(=O)c5cc6c(CCl)cnc(C)c6oc5=O)cc4)cc3)c(=O)oc12` [7r, N,N′-(Sulfonylbis(4,1-phenylene))bis(5-(chloromethyl)-8-methyl-2-oxo-2H-pyrano[2,3-c]pyridine-3-carboxamide)], the results for the IC50 in the series on M-HeLa, in the series on HuTu 80 and with Chang liver were 64.5 ± 4.5 µM, 5.5 ± 0.4 µM and 78 ± 5.9 µM, respectively. In addition, the “selectivity index, SI = IC50(Chang liver)/IC50(HuTu 80)” value in the series with HuTu 80 came to 14. In the series on HuTu 80 cells [1], the “apoptosis-inducing effect (in words)” value is listed as “apoptotic effects were registered”. Moreover, the “change in mitochondrial membrane potential (in words)” value with HuTu 80 cells [2] was “decrease in the mitochondrial membrane potential”. Also, the “Fluorescence intensity (CellROX Deep Red, ROS production)” value is reported as 1400 with HuTu 80 cells [3] (HuTu 80, 2.8 µM (IC50/2)) and 1700 with HuTu 80 cells [3] (HuTu 80, 5.5 µM (IC50)). For the same compound, the “ROS production vs control (in words)” value in the series on HuTu 80 cells [3] (HuTu 80, IC50/2 and IC50 concentrations) is on record as “significant increase”.
Take `Cc1ncc(CCl)c2cc(C(=O)Nc3cccc(S(=O)(=O)c4cccc(NC(=O)c5cc6c(CCl)cnc(C)c6oc5=O)c4)c3)c(=O)oc12` [7s, N,N′-(Sulfonylbis(3,1-phenylene))bis(5-(chloromethyl)-8-methyl-2-oxo-2H-pyrano[2,3-c]pyridine-3-carboxamide)]: the melting point is more than 300 °C. Also, the IC50 in the series on M-HeLa stood at 80 ± 5.7 µM. Further, in the series on HuTu 80, the IC50 amounted to 13.8 ± 1.1 µM and the “selectivity index, SI = IC50(Chang liver)/IC50(HuTu 80)” value is given as 9. The IC50 with Chang liver turned out to be 125 ± 11 µM.

Source of the values: article PMC10298512, “Synthesis and Anticancer Evaluation of Novel 7-Aza-Coumarine-3-Carboxamides” (International Journal of Molecular Sciences, 2023).
